From ChEMBL document CHEMBL1201862, “PubChem BioAssay data set” (2004)
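Interpolation was linear, between the two tested concentrations surrounding the appropriate level; five concentrations were tested over 48 hours in 96-well plates. The concentration for 50% growth inhibition is given as GI50.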 Calls of active or inactive are those of the source. Rule as the data show it: active = GI50 up to about 1.1 µM and inactive = higher.

Experiments:
Assay in all cases: NCI tumour cell line growth inhibition, 48 h
A549 = tested on: A549
CAKI-1 = tested on: CAKI-1
CCRF-CEM = tested on: CCRF-CEM
HOP-92 = tested on: HOP-92
Hs-578T = tested on: Hs-578T
IGROV-1 = tested on: IGROV-1
KM12 = tested on: KM12
MDA-MB-435 = tested on: MDA-MB-435
OVCAR-3 = tested on: OVCAR-3
OVCAR-4 = tested on: OVCAR-4
OVCAR-5 = tested on: OVCAR-5
PC-3 = tested on: PC-3
RPMI-8226 = tested on: RPMI-8226
SF-539 = tested on: SF-539
SK-MEL-28 = tested on: SK-MEL-28
SK-OV-3 = tested on: SK-OV-3
SNB-19 = tested on: SNB-19
SR = tested on: SR
SW-620 = tested on: SW-620
TK-10 = tested on: TK-10

Measured: GI50

CC1NC(C(=O)O)Cc2cc(O)c(O)cc21 (stereo not given)
inactive: A549 > 100 µM | CAKI-1 > 100 µM | CCRF-CEM 91.2 µM | HOP-92 > 100 µM | Hs-578T > 100 µM | IGROV-1 > 100 µM | KM12 > 100 µM | MDA-MB-435 > 100 µM | OVCAR-3 > 100 µM | OVCAR-4 > 100 µM | OVCAR-5 > 100 µM | PC-3 > 100 µM | RPMI-8226 > 100 µM | SF-539 > 100 µM | SK-MEL-28 > 100 µM | SK-OV-3 > 100 µM | SNB-19 > 100 µM | SR > 100 µM | SW-620 > 100 µM | TK-10 > 100 µM

C=C(CCC/C(C)=C/C=C/[C@]1(C)CCCc2ccoc21)CC(=O)O
inactive: A549 > 100 µM | CAKI-1 > 100 µM | CCRF-CEM 50 µM | HOP-92 > 100 µM | Hs-578T 50.5 µM | IGROV-1 > 100 µM | KM12 > 100 µM | MDA-MB-435 > 100 µM | OVCAR-3 54.8 µM | OVCAR-4 > 100 µM | OVCAR-5 > 100 µM | PC-3 90.6 µM | RPMI-8226 54.2 µM | SF-539 > 100 µM | SK-MEL-28 > 100 µM | SK-OV-3 > 100 µM | SNB-19 > 100 µM | SR 39.3 µM | SW-620 > 100 µM | TK-10 > 100 µM

COc1ccc(C=O)cc1Oc1ccc(C[C@H]2c3c(cc(OC)c4c3Oc3cc5c(cc3O4)CCN(C)C5=O)CCN2C)cc1
inactive: A549 36.2 µM | CAKI-1 18.7 µM | CCRF-CEM 10 µM | HOP-92 7.14 µM | Hs-578T 8.04 µM | IGROV-1 7.16 µM | KM12 8.91 µM | MDA-MB-435 9.73 µM | OVCAR-3 8.43 µM | OVCAR-4 7.93 µM | OVCAR-5 12.1 µM | PC-3 8.75 µM | RPMI-8226 5.04 µM | SF-539 8.67 µM | SK-MEL-28 10.6 µM | SK-OV-3 6.73 µM | SNB-19 12 µM | SR 9.38 µM | SW-620 12.1 µM | TK-10 11.2 µM

c1ccc2c(c1)c1c3n2-c2cc(on2)C3CCC1 (stereo not given)
inactive: A549 > 100 µM | CAKI-1 > 100 µM | CCRF-CEM 82.6 µM | HOP-92 > 100 µM | Hs-578T > 100 µM | IGROV-1 > 100 µM | KM12 > 100 µM | MDA-MB-435 > 100 µM | OVCAR-3 > 100 µM | OVCAR-4 > 100 µM | OVCAR-5 > 100 µM | PC-3 > 100 µM | RPMI-8226 > 100 µM | SF-539 > 100 µM | SK-MEL-28 > 100 µM | SK-OV-3 > 100 µM | SNB-19 > 100 µM | SR > 100 µM | SW-620 > 100 µM | TK-10 > 100 µM

Cc1ccc(C)c(NC(=O)C(Cc2c[nH]c3ccccc23)NC(=O)OCc2ccccc2)c1 (stereo not given)
inactive: A549 13.2 µM | CAKI-1 16.4 µM | CCRF-CEM 1.42 µM | HOP-92 17.2 µM | Hs-578T 58.7 µM | IGROV-1 18.2 µM | KM12 16.5 µM | MDA-MB-435 21.9 µM | OVCAR-3 29.7 µM | OVCAR-4 5.12 µM | OVCAR-5 25.6 µM | PC-3 11.5 µM | RPMI-8226 12 µM | SF-539 8.53 µM | SK-MEL-28 25.8 µM | SK-OV-3 20.1 µM | SNB-19 13.8 µM | SR 14.3 µM | SW-620 15.1 µM | TK-10 15.3 µM

c1ccc(CC(Nc2cccnc2)c2ccccc2)cc1 (stereo not given)
inactive: A549 25.6 µM | CAKI-1 32.4 µM | CCRF-CEM 16.4 µM | HOP-92 17.4 µM | Hs-578T 37.2 µM | IGROV-1 31 µM | KM12 24.2 µM | MDA-MB-435 22.9 µM | OVCAR-3 16.4 µM | OVCAR-4 25.7 µM | OVCAR-5 33.3 µM | PC-3 24.8 µM | RPMI-8226 17 µM | SF-539 20.6 µM | SK-MEL-28 31 µM | SK-OV-3 31.7 µM | SNB-19 30.8 µM | SR 23.9 µM | SW-620 33 µM | TK-10 32.2 µM

CCOc1ccc2c(c1)c(=O)c1c(NCCN(CC)CC)ccc3nnn2c31
inactive: A549 > 39.5 µM | CAKI-1 20.7 µM | CCRF-CEM 4.91 µM | HOP-92 29.2 µM | Hs-578T 57 µM | IGROV-1 9.64 µM | KM12 14 µM | MDA-MB-435 16.9 µM | OVCAR-3 > 100 µM | OVCAR-4 11.9 µM | OVCAR-5 > 36.1 µM | PC-3 18.8 µM | RPMI-8226 15.1 µM | SF-539 9.08 µM | SK-MEL-28 > 40.4 µM | SK-OV-3 > 100 µM | SNB-19 > 79.8 µM | SR 10.4 µM | SW-620 12.6 µM | TK-10 16.7 µM

CC1CCC2(C(=O)O)CCC3(C)C(=CCC4C5(C)CC(O)C(O)C(C)(CO)C5C(O)CC43C)C2C1C (stereo not given)
inactive: A549 > 100 µM | CAKI-1 > 100 µM | CCRF-CEM 19 µM | HOP-92 20.8 µM | Hs-578T 19.4 µM | IGROV-1 19.2 µM | KM12 43.3 µM | MDA-MB-435 45.6 µM | OVCAR-3 24.1 µM | OVCAR-4 > 100 µM | OVCAR-5 > 100 µM | PC-3 83.6 µM | RPMI-8226 33.4 µM | SF-539 39 µM | SK-MEL-28 30.8 µM | SK-OV-3 > 100 µM | SNB-19 22.7 µM | SR 22.8 µM | SW-620 > 100 µM | TK-10 > 100 µM

O=C1OC(c2ccco2)=N/C1=C\c1cccc([N+](=O)[O-])c1
inactive: A549 > 100 µM | CAKI-1 > 100 µM | CCRF-CEM > 100 µM | HOP-92 > 100 µM | Hs-578T > 100 µM | IGROV-1 > 100 µM | KM12 > 100 µM | MDA-MB-435 > 100 µM | OVCAR-3 > 100 µM | OVCAR-4 > 100 µM | OVCAR-5 > 100 µM | PC-3 > 100 µM | RPMI-8226 > 100 µM | SF-539 > 100 µM | SK-MEL-28 > 100 µM | SK-OV-3 > 100 µM | SNB-19 > 100 µM | SR > 100 µM | SW-620 > 100 µM | TK-10 > 100 µM

CCOC(=O)C1(Cc2ccccc2)CCN(C(=O)c2ccccc2)C2C1C2(Cl)Cl (stereo not given)
inactive: A549 30.1 µM | CAKI-1 24.3 µM | CCRF-CEM 20 µM | HOP-92 26.6 µM | Hs-578T 26.7 µM | IGROV-1 31.2 µM | KM12 29.9 µM | MDA-MB-435 21.1 µM | OVCAR-3 18.3 µM | OVCAR-4 26 µM | OVCAR-5 29.9 µM | PC-3 16.7 µM | RPMI-8226 13.2 µM | SF-539 18 µM | SK-MEL-28 21.1 µM | SK-OV-3 28.6 µM | SNB-19 36.1 µM | SR 23.6 µM | SW-620 25.7 µM | TK-10 24.4 µM
